Values quoted from earlier work, collected in patent US20140017301A1, “DRUG-FREE COMPOSITIONS AND METHODS FOR DIMINISHING PERIPHERAL INFLAMMATION AND PAIN” (priority 2011, published 2014).

Settings: excipients of Table 3

log P	Compound
−0.57	OCC(O)CS (stereo not shown) [3-sulfanylpropane-1,2-diol]
−3.2	O=C1C(N(CO)C(=O)NCO)N(CO)C(=O)N1CO (stereo not shown) [Diazodinyl Urea (Germall II), Diazodinyl Urea]
2.12	Cc1cc(O)c(C)c(C)c1O [2,3,5-trimethylbenzene-1,4-diol]
0.44	O=[N+]([O-])C1(Br)COCOC1 [5-Bromo-5-nitro-1,3-dioxane, bronidox, 5-Bromo-5-nitro-1,3-dioxane]
0.87	CC(=O)OC1CC(C)OC(C)O1 (stereo not shown) [(2,6-dimethyl-1,3-dioxan-4-yl) acetate]
1.38	C/C=C/C=C/C(=O)O [Sorbic acid]
2.63	CCCOC(=O)c1ccc(O)cc1 [Propyl 4-hydroxybenzoate; propylparabene, Propyl 4-hydroxybenzoate]
1.72	COC(=O)c1ccc(O)cc1 [Methyl 4-hydroxybenzoate; methylparabene, Methyl 4-hydroxybenzoate]
1.23	OCc1ccccc1 [Benzyl alcohol]
3.67	Benzalkonium
4.81	CCCCCCOc1cc(C)c(O)c(C)c1C [4-hexoxy-2,3,6-trimethylphenol, HTHQ, 4-hexoxy-2,3,6-trimethylphenol]
1.61	OCCc1ccccc1 [Phenylethanol]
3.21	Cc1ccc(C(C)C)c(O)c1 [6-isopropyl-m-cresol; thymol, 6-isopropyl-m-cresol]
1.08	O=c1[nH]sc2ccccc12 [1,2-benzothiazol-3-one]
2.16	CCOC(=O)c1ccc(O)cc1 [Ethyl 4-hydroxybenzoate; ethylparabene, Ethyl 4-hydroxybenzoate]
1.26	OCCOc1ccccc1 [Phenoxyethanol]
0.6	CC1(C)C(=O)N(CO)C(=O)N1CO [1,3-Dimethylol-5,5-dimethylhydantoin]
−0.06	Cn1sccc1=O [2-methyl-1,2-thiazol-3-one]

Compound	log P
CCCCOC(=O)c1ccc(O)cc1 [Butyl 4-hydroxybenzoate; butylparabene, Butyl 4-hydroxybenzoate]	3.07
CC(=O)C1C(=O)C=C(C)OC1=O (stereo not shown) [Dehydroacetic acid]	−0.05
COc1ccc(O)c(C(C)(C)C)c1 [Butylated hydroxyanisole, BHA, Butylated hydroxyanisole]	3.13
Tocopherol	9.76
NC(N)=S [Thiourea]	−0.96
O=C(O)CNCO [2-(hydroxymethylamino)acetic adic]	−2.2
Propanediol	−0.71
